Values of other authors in publication PMC3138524 (European journal of pharmacology, 2011).
Positions of bridges follow the written chain, without caps; N, C: chain ends. Non-standard residues stand in square brackets, D forms with d. d2Nal = N[C@H](Cc1ccc2ccccc2c1)C(=O)O; Pen = CC(C)(S)[C@H](N)C(=O)O; Nle = CCCC[C@H](N)C(=O)O

Experiments:
Format in all cases: cell-based, HEK293
[1] = target: T1, MC4R (Homo sapiens, UniProt P32245); settings: read-out: Binding Affinities IC50; n = 2
[2] = target: T2, MC3R (Homo sapiens, UniProt P41968); settings: read-out: Binding Affinities IC50; n = 2
[3] = target: T3, MC5R (Homo sapiens, UniProt P33032); settings: read-out: Functional Assays cAMP EC50; n = 2
[4] = target: T3, MC5R; settings: read-out: Binding Affinities IC50; n = 2
[5] = target: T2, MC3R; settings: read-out: Functional Assays cAMP EC50; n = 2
[6] = target: T1, MC4R; settings: read-out: Functional Assays cAMP EC50; n = 2

T2 sequence (P41968 whole entry): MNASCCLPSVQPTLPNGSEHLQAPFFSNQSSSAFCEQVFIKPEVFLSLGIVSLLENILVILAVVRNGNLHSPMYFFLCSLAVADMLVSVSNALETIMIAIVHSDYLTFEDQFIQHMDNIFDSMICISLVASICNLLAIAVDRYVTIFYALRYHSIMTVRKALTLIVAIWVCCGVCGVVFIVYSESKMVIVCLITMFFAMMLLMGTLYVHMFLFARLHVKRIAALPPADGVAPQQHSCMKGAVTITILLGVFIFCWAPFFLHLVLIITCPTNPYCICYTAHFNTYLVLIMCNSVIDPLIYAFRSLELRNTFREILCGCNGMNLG
T1 sequence (P32245 whole entry): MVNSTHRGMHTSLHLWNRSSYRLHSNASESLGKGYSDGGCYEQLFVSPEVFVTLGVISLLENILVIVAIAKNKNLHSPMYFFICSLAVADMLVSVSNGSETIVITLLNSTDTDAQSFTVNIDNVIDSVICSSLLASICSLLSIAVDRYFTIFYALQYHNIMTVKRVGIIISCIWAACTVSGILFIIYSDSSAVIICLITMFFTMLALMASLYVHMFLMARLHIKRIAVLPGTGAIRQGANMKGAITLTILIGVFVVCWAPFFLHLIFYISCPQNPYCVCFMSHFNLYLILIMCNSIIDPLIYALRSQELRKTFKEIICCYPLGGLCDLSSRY
T3 sequence (P33032 whole entry): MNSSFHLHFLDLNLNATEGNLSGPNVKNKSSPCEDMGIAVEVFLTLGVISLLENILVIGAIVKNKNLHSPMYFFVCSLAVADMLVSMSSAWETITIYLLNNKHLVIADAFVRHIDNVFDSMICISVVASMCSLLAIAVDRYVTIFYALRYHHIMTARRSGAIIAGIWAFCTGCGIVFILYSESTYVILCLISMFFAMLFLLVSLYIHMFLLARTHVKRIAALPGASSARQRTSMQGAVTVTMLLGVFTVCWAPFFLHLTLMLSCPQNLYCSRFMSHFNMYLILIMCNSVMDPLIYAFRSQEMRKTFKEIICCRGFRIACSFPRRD

**Q.** Which IC50 [1] does the source give for “Ac-c[Cys-His-D-Phe-N^α-Gubu-Cys]-Trp-NH2 [compound 6]” here?
**A.** Its IC50 is 1.8 nM.

**Q.** Which IC50 [2] does the source give for “Ac-Nle-c[Asp-Aba-D-Phe-Arg-Trp-Lys]-NH2 [compound 4]” here?
**A.** The IC50 was 50 nM.

**Q.** With “Tyr-Val-Nle-Gly-His-D-Nal(2′)-Arg-Trp-Asp-Arg-Phe-Gly-NH2 [compound 1]” as the molecule, how does the EC50 [3] read?
**A.** Its EC50 is over 10 µM.

**Q.** And the IC50 [4]?
**A.** Its IC50 is 1 nM.

**Q.** And the EC50 [5]?
**A.** The EC50 was over 10 µM.

**Q.** What about the IC50 [2] of the same molecule?
**A.** The IC50 was 0.84 nM.

**Q.** With “Ac-[Nle][Pen]EH[d2Nal]RWCPKD-NH2 (disulfide 2-8) [compound 5]” as the molecule, how does the IC50 [2] read?
**A.** The IC50 was 3 nM.

**Q.** For “Ac-c[Cys-His-D-Phe-Cys]-N^α-Gubu-D-Trp-NH2 [compound 7]”, which IC50 [1] is on record?
**A.** Its IC50 is 0.7 nM.

**Q.** And the EC50 [6]?
**A.** Its EC50 is over 1 µM.

**Q.** With `N=C(N)NCCC[C@@H]1NC(=O)[C@@H](Cc2ccccc2)NC(=O)[C@@H]2CCCN2C(=O)[C@@H](NC(=O)[C@H](N)Cc2ccccc2)CC(=O)NCCCC[C@@H](C(N)=O)NC(=O)[C@H](Cc2c[nH]c3ccccc23)NC1=O` [compound 3, D-Phe-c[Asp-Pro-D-Phe-Arg-Trp-Lys]-NH2] as the molecule, how does the EC50 [3] read?
**A.** The EC50 was over 1 µM.

**Q.** What about the EC50 [6] of the same molecule?
**A.** Its EC50 is over 10 µM.
